In patent US20250352500A1, “USE OF PHENOLIC ACIDS DERIVATIVES IN TREATING ISCHEMIC STROKE” (LANZHOU UNIVERSITY, priority 2022, published 2025):

Experiments:
Format in all cases: in vivo, male C57/BL mice
[1] = test system: iba1; assay: iba1 protein Western blot in brain tissue; conditions: for iba1 protein expression reduced compared with MCAO group: three days of administration, compound 2 100 mg/kg, compound 1 50 mg/kg
Method: (§1) Grouping and administration method: Male C57/BL mice weighing 23±1 g were randomly divided into sham operation group (SHAM), model group (MCAO), compound 2 group (100 mg/kg), and compound 1 group (50 mg/kg), with 10 mice in each group. Mice in the SHAM group underwent vascular isolation, but no […] was administered, and no treatment was given before or after surgery. The model group mice were constructed with MCAO models and were not treated before and after surgery. The treatment group was treated with compound 2 or compound 1 on the basis of the model group. Mice with a neurological score of 0 after reperfusion and those that died before 72 hours post-surgery were excluded. The administration time for animal behavior tests was seven times at 0 h, 1 day, 2 days, 3 days, 4 days, 5 days, and 6 days after reperfusion, while the administration time for other experiments was three times at 0 h, 1 day, and 2 days after reperfusion. The drug was administered through the tail vein, and the sham operation group and model group were given equal amounts of saline.
The expression level of the specific protein iba1 in microglia in brain tissues was detected by Western blot. (A) The representative WB images of iba1 protein expression in brain tissues of the sham operation group (SHAM), model group (MCAO), compound 2 group, and compound 1 group are shown in FIG. 8A, and the quantitative statistical results are shown in FIG. 8B. […] Compared with the MCAO group, the expression of iba1 protein decreased three days after administration of compound 1. Compared with the compound 1 group, the expression level of iba1 protein in the compound 2 group decreased. In this experiment, β-actin was used as the internal reference protein. n=3, data are presented as mean±SEM, analyzed with one-way ANOVA, and subjected to Tukey's HSD test. *P<0.05, **P<0.01, ***P<0.001. ^#P<0.05, ^##P<0.01, ^###P<0.001. * indicates comparison with the SHAM group, ^# indicates a comparison with the Compound 2 group.

[2] = test system: HIF-1α; assay: HIF-1α immunofluorescence in brain tissue; conditions: 72 h ischemia-reperfusion, three days of administration; compound 2 100 mg/kg, compound 1 50 mg/kg; MCAO group 568±60; mean±SEM, n=3
Method: as §1, with “The administration time for animal behavior tests was seven times at 0 h, 1 day, 2 days, 3 days, 4 days, 5 days, and 6 days after reperfusion, while the administration time for other experiments was three times at 0 h, 1 day, and 2 days after reperfusion. The drug was administered through the tail vein, and the sham operation group and model group were given equal amounts of saline.” left out
After 72 hours of ischemia-reperfusion, the expression changes of the inflammatory factor HIF-1α in the brain region were analyzed by immunofluorescence staining. […] Compared with the compound 1 group, the number of HIF-1α-positive cells in the compound 2 group was lower (197±33 vs 250±54/mm^2, P<0.001). n=3, data are presented as mean±SEM, analyzed using one-way ANOVA, and subjected to Tukey's HSD test. *P<0.05, **P<0.01, ***P<0.001. ^#P<0.05, ^##P<0.01, ^###P<0.001. * indicates a comparison with the MCAO group, ^# indicates comparison with the compound 2 group.

[3] = test system: TNF-α; assay: TNF-α immunofluorescence in brain tissue; conditions: 72 h ischemia-reperfusion; compound 2 100 mg/kg, compound 1 50 mg/kg; MCAO group 361±48; mean±SEM, n=3
Method: as §1, with “The administration time for animal behavior tests was seven times at 0 h, 1 day, 2 days, 3 days, 4 days, 5 days, and 6 days after reperfusion, while the administration time for other experiments was three times at 0 h, 1 day, and 2 days after reperfusion. The drug was administered through the tail vein, and the sham operation group and model group were given equal amounts of saline.” left out
(§2) To investigate the effect of compounds on the expression of inflammatory factors after ischemia-reperfusion, this study used immunofluorescence experiments to observe the expression of TNF-α, IL-1β, IL-6, iNOS, and COX2 proteins in brain tissue. […] The concentrations of TNF-α, IL-1β, and IL-6 in brain homogenate were detected by enzyme-linked immunosorbent assay (ELISA), and the expression level of TNF-α protein in brain tissue was detected by Western blot.
After 72 hours of ischemia-reperfusion, the expression changes of inflammatory factors such as TNF-α, IL-1β, IL-6, iNOS, and COX2 in brain regions were analyzed by immunofluorescence staining. […]

[4] = test system: HIF-1α; assay: RT-qPCR of HIF-1α mRNA in brain tissue; conditions: 72 h; for HIF-1α mRNA expression level reduced compared with MCAO group: three days of administration, compound 2 100 mg/kg, compound 1 50 mg/kg
Method: as §1
HIF-1α is a sensitive regulator of oxygen homeostasis, rapidly inducing its expression after hypoxia-ischemia. It plays a wide range of roles in the pathophysiology of stroke, including neuronal survival, neuroinflammation, angiogenesis, glucose metabolism, and blood-brain barrier regulation. It can not only produce specific sensations in the case of hypoxia, but also facilitate the maintenance of oxygen homeostasis in the body. […]
After 72 hours of ischemia-reperfusion, the mRNA expression level of HIF-1α in brain tissue was detected and analyzed by RT-qPCR. […] Compared with the compound 1 group, the expression level of HIF-1α in the compound 2 group decreased by 53±11% (P<0.001). n=3, data are presented as mean±SEM, analyzed using one-way ANOVA, and subjected to Tukey's HSD test. *P<0.05, **P<0.01, ***P<0.001. ^#P<0.05, ^##P<0.01, ^###P<0.001. * indicates a comparison with the SHAM group, indicates a comparison with the Compound 2 group.

[5] = test system: COX2; assay: RT-qPCR of COX2 mRNA in brain tissue; conditions: 72 h, three days of administration, compound 2 100 mg/kg, compound 1 50 mg/kg, P<0.001
Method: as §1, with “The administration time for animal behavior tests was seven times at 0 h, 1 day, 2 days, 3 days, 4 days, 5 days, and 6 days after reperfusion, while the administration time for other experiments was three times at 0 h, 1 day, and 2 days after reperfusion. The drug was administered through the tail vein, and the sham operation group and model group were given equal amounts of saline.” left out
as §2
After 72 hours of ischemia-reperfusion, the mRNA expression levels of TNF-α, IL-1β, IL-6, iNOS, and COX2 in brain tissue were detected and analyzed by RT-qPCR. […]

SMILES | iba1 protein expression reduced compared with MCAO group [1] | Number of HIF-1α-positive cells [2] | Number of TNF-α-positive cells [3] | HIF-1α mRNA expression level reduced compared with MCAO group [4] | COX2 mRNA expression compared with MCAO group [5] | iba1 protein expression level compared with the compound 1 group ([1]; compound 2 100 mg/kg vs compound 1 50 mg/kg) | HIF-1α mRNA expression level decreased compared with the compound 1 group ([4]; compound 2 100 mg/kg vs compound 1 50 mg/kg, P<0.001)
O=C(O)c1cc(O)ccc1O [compound 1] | decreased | 250±54 /mm^2 | 244±36 /mm^2 | 41±13% | significantly reduced | – | –
O=C(O)c1cc(OP(=O)(O)O)ccc1OP(=O)(O)O [compound 2] | 50±12% | 197±33 /mm^2 | 140±35 /mm^2 | 75±17% | significantly reduced | decreased | 53±11%
